target: thymidine kinase (Oryctolagus cuniculus); assay: Inhibitory affect against rabbit thymus thymidine kinase

Row | Ki | SMILES
1 | 1280 µM | O=c1[nH]c(=S)ccn1[C@H]1CC[C@@H](CO)O1
2 | 1690 µM | O=c1[nH]c(=S)ccn1[C@H]1C=C[C@@H](CO)O1
3 | 445 µM | O=c1ccn([C@H]2C=C[C@@H](CO)O2)c(=O)[nH]1

target: thymidine kinase (Oryctolagus cuniculus); assay: as above; remark: another data set of the same source

Row | Ki | SMILES
4 | 1600 µM | Cc1cn([C@H]2CC[C@@H](CO)O2)c(=O)[nH]c1=S
5 | 54 µM | Cc1cn([C@H]2C[C@H](N=[N+]=[N-])[C@@H](CO)O2)c(=O)[nH]c1=S
6 | 1690 µM | Cc1cn([C@H]2C=C[C@@H](CO)O2)c(=O)[nH]c1=S
